Laboratory results taken from patent EP4389156A1, “RA[…] LIGAND COMPOUNDS AND PRECURSORS THEREOF” (Technische Universität München, priority 2022, dated 2024).
Values joined by “and” are separate entries in the source; they are usually repeats but may differ in a detail not shown here. Identical values can stand only once.

Legend:
[1] = Lipophilicity (logD7.4), shake-flask method; assay type: physicochemical; settings: n-octanol/PBS (pH 7.4), n = 8, mean ± SD
Method: The lipophilicity of ^99mTc-labeled PSMA ligands, expressed as distribution coefficient (logD7.4), was determined using the shake-flask method. A solution of approximately 1 MBq of radioligand in 1 mL of a 1:1 mixture of PBS (pH = 7.4) and n-octanol (n = 8) was vortexed vigorously for 3 min. After centrifugation at 9000 rpm for 5 min aliquots of both phases (200 µL n-octanol, 50 µL PBS) were collected and the activity was quantified in a γ-counter. logD7.4 values were calculated as decadic logarithm of the activity concentration ratio between the n-octanol phase and the aqueous phase. Data are given as mean ± standard deviation (SD). Binding to human plasma was determined by incubation of radioligands in human plasma (2 nM concentration, 37 °C for 30 min) and subsequent ultrafiltration (250 µL aliquots, 3200 rpm, 40 min) in Centrifree® ultrafiltration devices (Merck Millipore, Cork, Ireland). The fraction bound to human plasma proteins was calculated as the ratio of unfiltered activity and the total activity in the ultrafiltration device. Measurements were performed in three independent experiments, each with two replicates (n = 6, data are given as mean ± SD). All values were corrected for non-specific binding (control experiments in PBS).

[2] = target: T1, human serum albumin (HSA) (Homo sapiens, UniProt P02768); experiment: HSA binding by high performance affinity chromatography (HPAC); assay type: in vitro ADME; settings: uncomplexed compounds, n = 1
T1 construct: purchased Daicel, Tokyo, Japan H13H-2433
T1 sequence (P02768 25-609): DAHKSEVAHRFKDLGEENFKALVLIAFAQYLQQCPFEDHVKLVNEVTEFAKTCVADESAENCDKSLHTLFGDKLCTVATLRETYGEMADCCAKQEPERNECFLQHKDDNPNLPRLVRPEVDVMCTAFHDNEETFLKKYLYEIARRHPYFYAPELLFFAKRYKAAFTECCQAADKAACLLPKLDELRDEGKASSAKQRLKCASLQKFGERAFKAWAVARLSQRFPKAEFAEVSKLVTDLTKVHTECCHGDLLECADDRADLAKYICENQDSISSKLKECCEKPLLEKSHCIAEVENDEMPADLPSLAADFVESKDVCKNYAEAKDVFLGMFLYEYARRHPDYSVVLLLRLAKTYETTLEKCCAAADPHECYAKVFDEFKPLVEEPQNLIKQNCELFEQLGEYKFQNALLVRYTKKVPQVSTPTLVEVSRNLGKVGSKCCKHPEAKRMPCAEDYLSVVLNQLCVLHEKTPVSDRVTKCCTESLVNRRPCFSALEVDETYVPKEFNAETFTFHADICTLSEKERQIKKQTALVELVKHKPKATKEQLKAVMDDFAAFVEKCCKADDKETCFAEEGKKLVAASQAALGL
Method: HSA binding of the uncomplexed PSMA ligands was determined according to a previously published procedure via HPLC (Valko, K.; Nunhuck, S.; Bevan, C.; Abraham, M. H.; Reynolds, D. P., Fast gradient HPLC method to determine compounds binding to human serum albumin. Relationships with octanol/water and immobilized artificial membrane lipophilicity. J Pharm Sci. 2003, 92, 2236-2248). A Chiralpak HSA column (50 × 3 mm, 5 µm, H13H-2433, Daicel, Tokyo, Japan) was used at a constant flow rate of 0.5 mL/min at rt. Mobile phase A was a freshly prepared 50 mM aqueous solution of NH4OAc (pH 6.9) and mobile phase B was isopropanol (HPLC grade, VWR). The applied gradient for all experiments was 100% A (0 to 3 min), followed by 80% A (3 to 40 min). Prior to the experiment, the column was calibrated using nine reference substances with a HSA binding, known from literature, in the range of 13 to 99% (Valko, K.; Nunhuck, S.; Bevan, C.; Abraham, M. H.; Reynolds, D. P., J Pharm Sci. 2003, 92, 2236-2248; Yamazaki, K.; Kanaoka, M., Computational prediction of the plasma protein-binding percent of diverse pharmaceutical compounds. J Pharm Sci. 2004, 93, 1480-1494). All substances, including the examined PSMA ligands, were dissolved in a 1:1 mixture (v/v) of isopropanol and a 50 mM aqueous solution of NH4OAc (pH 6.9) with a final concentration of 0.5 mg/mL. Non-linear regression was established with the OriginPro 2016G software (Northampton, United States).

PSMA = target: T2, PSMA (Homo sapiens, UniProt Q04609); experiment: Competitive binding study, inverse IC50 (99mTc-radioligand versus increasing IBA-KuE); settings: inverse IC50: IBA-KuE competes against 99mTc-radioligand (0.2 nM/well); higher values = higher affinity; 1 h, 4°C, n = 3, mean ± SD; read-out: IC50, inv.
T2 construct: endogenous in cells; printed for the internalization assay of the same paragraph
T2 sequence (Q04609 whole entry): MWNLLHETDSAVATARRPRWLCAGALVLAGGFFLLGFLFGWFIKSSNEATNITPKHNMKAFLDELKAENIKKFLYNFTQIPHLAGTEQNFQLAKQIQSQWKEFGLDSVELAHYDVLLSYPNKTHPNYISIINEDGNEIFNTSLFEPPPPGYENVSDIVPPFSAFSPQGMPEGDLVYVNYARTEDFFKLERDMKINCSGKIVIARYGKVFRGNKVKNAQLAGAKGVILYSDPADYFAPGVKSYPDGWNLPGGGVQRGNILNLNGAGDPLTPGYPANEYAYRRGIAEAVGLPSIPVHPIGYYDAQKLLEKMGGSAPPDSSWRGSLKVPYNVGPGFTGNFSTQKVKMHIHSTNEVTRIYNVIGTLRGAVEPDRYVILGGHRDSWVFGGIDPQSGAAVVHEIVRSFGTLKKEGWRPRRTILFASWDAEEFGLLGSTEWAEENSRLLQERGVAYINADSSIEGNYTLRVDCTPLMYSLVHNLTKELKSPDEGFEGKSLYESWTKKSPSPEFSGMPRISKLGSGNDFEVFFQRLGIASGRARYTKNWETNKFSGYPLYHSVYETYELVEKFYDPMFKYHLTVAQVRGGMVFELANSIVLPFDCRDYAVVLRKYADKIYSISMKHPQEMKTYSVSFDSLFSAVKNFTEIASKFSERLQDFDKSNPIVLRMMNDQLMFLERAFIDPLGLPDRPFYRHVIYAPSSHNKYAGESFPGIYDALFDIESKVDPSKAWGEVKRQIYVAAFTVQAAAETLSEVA
Method: (§1) Competitive binding studies were carried out in analogy to a previously reported procedure. As a modification the non-radiolabeled standard competitor (((S)-1-carboxy-5-(4-(iodo)benzamido)pentyl)carbamoyl)-L-glutamic acid (IBA-KuE) was applied in increasing concentrations (10^-5 - 10^-11 M/well, n = 3 each) whereas the novel PSMA-binding compounds of interest were applied as ^99mTc-labeled radioligands (0.2 nM/well). In this inversed experimental approach, higher values correspond to higher affinities and are referred to as inverse IC50. Poly-L-lysine coated 24-well plates were used (n = 3). Data are given as mean ± SD. To determine the cellular uptake of the ^99mTc-labeled PSMA ligands into LNCaP cells by means of PSMA-mediated internalization at 1 h, a previously reported protocol was applied with assay concentrations of 1.0 nM and 0.2 nM for ^99mTc-labeled PSMA ligands and the reference compound [^125I]IBA-KuE, respectively. Data are corrected for non-specific binding and normalized to the specific internalization of the reference. Results are given as mean ± SD.

LNCaP cells = experiment: PSMA-mediated internalization into LNCaP cells; assay type: cell-based; settings: 1 h, 37°C, n = 3, as percentage of reference [125I]IBA-KuE, mean ± SD
Method: as §1

[3] = system: LNCaP tumor-bearing CB17-SCID mice; experiment: Biodistribution study in LNCaP tumor-bearing mice; assay type: in vivo; settings: 6 h p.i.; for uptake in % iD/g adrenals / uptake in % iD/g blood / uptake in % iD/g bone / uptake in % iD/g heart / uptake in % iD/g intestine / uptake in % iD/g kidney / uptake in % iD/g liver / uptake in % iD/g lung / uptake in % iD/g muscle / uptake in % iD/g pancreas / uptake in % iD/g parotid gland / uptake in % iD/g spleen / uptake in % iD/g stomach / uptake in % iD/g submandibular gland / uptake in % iD/g tumor: male LNCaP tumor-bearing CB17-SCID mice, mean; for uptake in % iD/g adrenals / uptake in % iD/g blood / uptake in % iD/g bone / uptake in % iD/g heart / uptake in % iD/g intestine / uptake in % iD/g kidney / uptake in % iD/g liver / uptake in % iD/g lung / uptake in % iD/g muscle / uptake in % iD/g pancreas / uptake in % iD/g parotid gland / uptake in % iD/g spleen / uptake in % iD/g stomach / uptake in % iD/g submandibular gland / uptake in % iD/g tumor / tumor-to-background ratio adrenals / tumor-to-background ratio blood / tumor-to-background ratio bone / tumor-to-background ratio heart / tumor-to-background ratio intestine / tumor-to-background ratio kidney / tumor-to-background ratio liver / tumor-to-background ratio lung / tumor-to-background ratio muscle / tumor-to-background ratio pancreas / tumor-to-background ratio parotid gland / tumor-to-background ratio spleen / tumor-to-background ratio stomach / tumor-to-background ratio submandibular gland: n = 4-5; for tumor-to-background ratio adrenals / tumor-to-background ratio blood / tumor-to-background ratio bone / tumor-to-background ratio heart / tumor-to-background ratio intestine / tumor-to-background ratio kidney / tumor-to-background ratio liver / tumor-to-background ratio lung / tumor-to-background ratio muscle / tumor-to-background ratio pancreas / tumor-to-background ratio parotid gland / tumor-to-background ratio spleen / tumor-to-background ratio stomach / tumor-to-background ratio submandibular gland: mean of ratios of individual animals; for Blood activity levels increased, as compared to [^99mTc]Tc-N4-PSMA-12: relative to [^99mTc]Tc-N4-PSMA-12
Method: All animal experiments were conducted in accordance with general animal welfare regulations in Germany (German animal protection act, in the edition of the announcement, dated May 18th, 2006, as amended by Article 280 of June 19th 2020, approval no. ROB-55.2-1-2532.Vet_02-18-109 by the General Administration of Upper Bavaria) and the institutional guidelines for the care and use of animals. Male CB17-SCID mice were purchased from Charles River (Sulzfeld, Germany) and arrived at the in-house animal facility to acclimate at least 1 week before the start of the experiment. Tumor xenografts were established by subcutaneous inoculation of LNCaP cells (approx. 2 × 10^7 cells in 200 µL of a 1:1 mixture of Cultrex BME (R&D Systems, Minneapolis, United States) and DMEM/Ham's F-12) onto the right shoulder of 6-8 weeks old male CB17-SCID mice. The animals were used for experiments when tumors had grown to a size of 5-10 mm in diameter. Criteria for the exclusion of animals from the experiment were weight loss higher than 20%, tumor size above 1.5 cm^3, ulceration of the tumor, respiratory distress or change of behavior. […] Neither randomisation nor blinding was applied in the allocation of the experiments. Quarterly health monitoring was performed according to the FELASA recommendations.
Biodistribution Studies. The ^99mTc-labeled radioligands (2.7 ± 0.7 MBq, 82 ± 20 pmol) were injected into a lateral tail vein of LNCaP-tumor bearing mice (n = 4-5) under isoflurane anesthesia. Animals were sacrificed at 6 h post injection (p.i.) by carbon dioxide inhalation and blood withdrawal via cardiac puncture. Blood and tissues of interest were collected, weighed and the activity measured in a γ-counter. Radioligand uptake is given in percent of the injected dose per gram of tissue (% ID/g) and results are presented as mean ± SD.
In line with the above, the biodistribution study of [^99mTc]Tc-N4-PSMA-21 was carried out with n = 5 animals ("data set I"). […] Kidney uptake of mouse #3 (36.17 %ID/g) exceeded the value obtained from the other four animals (4.58 ± 1.44 %ID/g, mean ± SD) 7.9-fold or by more than 20 standard deviations. In addition, tumor uptake of mouse #3 (21.92 %ID/g) exceeded the value obtained from the other four animals (11.02 ± 2.22 %ID/g, mean ± SD) 2.0-fold or by more than 4 standard deviations Due to the uncertainty whether these huge deviations arise from an experimental error or might be related to strongly deviating metabolic processes e.g. abnormal kidney function in mouse #3, the study primarily presents and discusses the data set based on the other four animals (n = 4, "data set II"). A thorough evaluation and comparison was, however, also carried out including mouse #3.

[4] = single outlier animal (mouse #3), excluded from data set II

Structure (SMILES): CC(C)(C)[Si](O)(c1ccc(C(=O)NC[C@@H](NC(=O)[C@@H](Cc2ccccc2)NC(=O)C(CNCCN)CNCCN)C(=O)N[C@H](CCCCNC(=O)CCC(=O)NCCC[C@@H](NC(=O)CC[C@H](NC(=O)N[C@@H](CCC(=O)O)C(=O)O)C(=O)O)C(=O)O)C(=O)O)cc1)C(C)(C)C.[O]=[99Tc+]=[O] [[^99mTc]Tc-N4-PSMA-13]
- logD7.4 [1]: -2.78 ± 0.05
- HSA-binding (HPAC) (%) [2]: 89.9%
- inverse IC50 (PSMA): 9.98 ± 0.99 nM
- internalization (% IBA-KuE) (LNCaP cells): 164 ± 15%
- uptake in % iD/g adrenals [3]: 0.5170 % ID/g
- uptake in % iD/g blood [3]: 0.0320 % ID/g
- uptake in % iD/g bone [3]: 0.0862 % ID/g
- uptake in % iD/g heart [3]: 0.0456 % ID/g
- uptake in % iD/g intestine [3]: 0.2661 % ID/g
- uptake in % iD/g kidney [3]: 6.6 ± 4.8 % ID/g and 6.5974 % ID/g
- uptake in % iD/g liver [3]: 0.2618 % ID/g
- uptake in % iD/g lung [3]: 0.1108 % ID/g
- uptake in % iD/g muscle [3]: 0.0127 % ID/g
- uptake in % iD/g pancreas [3]: 0.0270 % ID/g
- uptake in % iD/g parotid gland [3]: 0.1056 % ID/g
- uptake in % iD/g spleen [3]: 0.6314 % ID/g
- uptake in % iD/g stomach [3]: 0.1348 % ID/g
- uptake in % iD/g submandibular gland [3]: 0.3069 % ID/g
- uptake in % iD/g tumor [3]: 12.5347 % ID/g
- tumor-to-background ratio adrenals [3]: 24.50
- tumor-to-background ratio blood [3]: 409.29
- tumor-to-background ratio bone [3]: 142.94
- tumor-to-background ratio heart [3]: 276.38
- tumor-to-background ratio intestine [3]: 64.62
- tumor-to-background ratio kidney [3]: 2.45
- tumor-to-background ratio liver [3]: 50.17
- tumor-to-background ratio lung [3]: 113.30
- tumor-to-background ratio muscle [3]: 1013.12
- tumor-to-background ratio pancreas [3]: 496.73
- tumor-to-background ratio parotid gland [3]: 119.35
- tumor-to-background ratio spleen [3]: 20.57
- tumor-to-background ratio stomach [3]: 101.82
- tumor-to-background ratio submandibular gland [3]: 41.60
- Blood activity levels increased, as compared to [^99mTc]Tc-N4-PSMA-12 [3]: 1.6 fold

Structure (SMILES): CC(C)(C)[Si](O)(c1ccc(C(=O)NC[C@@H](NC(=O)[C@@H](Cc2ccc(N)cc2)NC(=O)C(CNCCN)CNCCN)C(=O)N[C@H](CCCCNC(=O)CCC(=O)NCCC[C@@H](NC(=O)CC[C@H](NC(=O)N[C@@H](CCC(=O)O)C(=O)O)C(=O)O)C(=O)O)C(=O)O)cc1)C(C)(C)C.[O]=[99Tc+]=[O] [[^99mTc]Tc-N4-PSMA-21]
- logD7.4 [1]: -3.13 ± 0.05
- HSA-binding (HPAC) (%) [2]: 57.3%
- inverse IC50 (PSMA): 11.1 ± 1.42 nM
- internalization (% IBA-KuE) (LNCaP cells): 180 ± 4%
- uptake in % iD/g adrenals [3]: 0.5759 % ID/g
- uptake in % iD/g blood [3]: 0.1074 % ID/g
- uptake in % iD/g bone [3]: 0.0828 % ID/g
- uptake in % iD/g heart [3]: 0.0568 % ID/g
- uptake in % iD/g intestine [3]: 1.1034 % ID/g
- uptake in % iD/g kidney [3]: 4.58 ± 1.44 % ID/g and 4.6 ± 1.4 % ID/g and 4.5811 % ID/g
- uptake in % iD/g liver [3]: 0.5752 % ID/g
- uptake in % iD/g lung [3]: 0.1250 % ID/g
- uptake in % iD/g muscle [3]: 0.0153 % ID/g
- uptake in % iD/g pancreas [3]: 0.0335 % ID/g
- uptake in % iD/g parotid gland [3]: 0.1105 % ID/g
- uptake in % iD/g spleen [3]: 1.3064 % ID/g
- uptake in % iD/g stomach [3]: 0.1458 % ID/g
- uptake in % iD/g submandibular gland [3]: 0.3009 % ID/g
- uptake in % iD/g tumor [3]: 11.02 ± 2.22 % ID/g and 11.0155 % ID/g
- tumor-to-background ratio adrenals [3]: 19.85
- tumor-to-background ratio blood [3]: 125.55
- tumor-to-background ratio bone [3]: 207.38
- tumor-to-background ratio heart [3]: 201.50
- tumor-to-background ratio intestine [3]: 52.29
- tumor-to-background ratio kidney [3]: 2.57
- tumor-to-background ratio liver [3]: 23.75
- tumor-to-background ratio lung [3]: 99.35
- tumor-to-background ratio muscle [3]: 736.44
- tumor-to-background ratio pancreas [3]: 350.74
- tumor-to-background ratio parotid gland [3]: 101.59
- tumor-to-background ratio spleen [3]: 10.32
- tumor-to-background ratio stomach [3]: 114.49
- tumor-to-background ratio submandibular gland [3]: 50.80
- Blood activity levels increased, as compared to [^99mTc]Tc-N4-PSMA-12 [3]: 5.4 fold
- Kidney uptake of mouse #3 [3, 4]: 36.17 %ID/g
- tumor uptake of mouse #3 [3, 4]: 21.92 %ID/g
